“Also recorded” adds a separate entry of the source. Where two headings read alike, the source gives them in different places.
What was measured:
[1] = test system: Phytophthora infestans (US22); type: in vivo; conditions: for resistance to US22 P. infestans: at the concentration tested; for resistance to P. infestans: root treatment, at the concentrations tested
[2] = test system: Phytophthora infestans (US22); type: in vivo

CC1O[C@@H](O[C@H](C)CCCCCCC(=O)O)C(O)C[C@H]1O (stereo partly shown) [ascr #10]
resistance to US22 P. infestans ([1]; tomato cv. M82): not

C[C@H](CCC(=O)O)O[C@@H]1O[C@@H](C)[C@H](O)C[C@H]1O [ascr #9]
P. infestans resistance in tomato ([1]; in vivo): + | resistance to US22 P. infestans (lesion size, sporangia number) ([1]; tomato cv. M82, root immersion 1 μM 48 hours before, 7 dpi): enhances resistance | resistance to P. infestans ([1]; tomato cv. M82): enhanced resistance

CC1O[C@@H](O[C@H](C)CCCC/C=C/C(=O)O)C(O)C[C@H]1O (stereo partly shown) [ascr #3]
resistance of M82 against P. infestans ([1]; 0.01 μM): did not have a significant effect | P. infestans resistance in tomato ([1]; in vivo): − | resistance to P. infestans ([1]; tomato cv. M82): neither ascr #3 nor oscr #9 affected resistance

CC1O[C@@H](O[C@@H](C)CCCCCCCCC(=O)O)C(O)C[C@H]1O (stereo in doubt) [ascr #18, (10R)-(3′R,5′R-dihydroxy-6′S-methyl-(2H)-tetrahydropyran-2-yloxy)-undecanoic Acid]
P. infestans resistance in tomato ([1]; tomato (M82), root pretreatment with 0.01 or 1 μM ascaroside): + | resistance to P. infestans ([1]; tomato cv. M82): enhanced resistance | protection against US22 P. infestans (sporangia number, lesion size) ([1]; tomato cv. M82, roots pretreated 48 hours, 1 nM and 10 nM): strong protection | resistance to virulent US22 P. infestans ([1]; tomato cv. M82 and Rio Grande, root immersion 0.01 μM 48 hours before inoculation): enhances resistance | resistance to virulent US22 P. infestans (lesion size 5 dpi, sporangia 6 dpi) ([1]; tomato cv. Rio Grande, root immersion 0.01 μM 48 hours before): enhanced resistance | enhancement of resistance ([1]; tomato, 100 nM): reduced or lost | ascr #18 concentrations of maximal protection/resistance ([1]; tomato, P. infestans US22): 1 to 10 nM | concentration that enhanced resistance (as little as) ([1]; tomato, P. infestans US22): 10 pM | protection against P. infestans ([1]; tomato, higher concentrations): decreased | protection against virulent P. infestans ([2]; potato cv. Desiré, Eva or Yukon Gold, 10 nM by root immersion or foliar spray 48 hours prior): provided protection; also recorded: protects against P. infestans-induced late blight | resistance to virulent US22 P. infestans (lesion size 5 dpi) ([2]; potato cv. Désirée, root immersion 0.01 μM 48 hours before): enhanced resistance

CC1O[C@@H](O[C@H](C)CCCCCCCCC(=O)NCCO)C(O)C[C@H]1O (stereo partly shown) [easc #18]
resistance to virulent US22 P. infestans (lesion size 5 dpi, sporangia 6 dpi) ([1]; in vivo): enhanced resistance

CC1O[C@@H](OCCCCC(=O)O)C(O)C[C@H]1O (stereo partly shown) [oscr #9]
P. infestans resistance in tomato ([1]; in vivo): − | resistance to US22 P. infestans ([1]; tomato cv. M82): not | resistance to P. infestans ([1]; tomato cv. M82): neither ascr #3 nor oscr #9 affected resistance
